Measurements from patent US9681647B2, “Mammal with an orthotopic tumor capable of metastasis, a method of making and a method of using” (Cornell University, priority 2012, dated 2017).
Marks after values point to notes of the source that are not given here.

Experiments:
[1] = system: metastatic tumors made according to the present disclosure; assay: Oxaliplatin treatment of metastatic tumors versus primary GI tumors and subcutaneous xenografts; assay type: in vivo
[2] = system: early stage CCIC colon/intestine and ex-GI xenograft tumors (CCR9/CCL25 axis); assay: CCIC xenograft tumor formation after tail vein injection, CCR9/CCL25 blocked before or with cell injection (Table 2); assay type: in vivo, NOD/SCID mice
Text: CCR9 constitutive and inducible knockdown; Snail or CD26 knockdown in CCIC and NOTCH reporter CCIC. The lentiviral vector pEco-CMV-H1-shRNA-GFP encoding a shRNA hairpin sequence (CCR9: 5′-CTTGTACTGGC[…] ID NO:14; Snail: 5′-GAGCTGCAGG[…] ID NO:15; CD26: 5′-CATTCCTACAC[…] ID NO:16) was used for CCR9, Snail or CD26 expression knockdown and the lentiviral vectors pEco-CMV-H1-GFP (GenTarget Inc, San Diego, Calif.) and pEco-CMV-H1-scrambled-shRNA-GFP served as controls. To generate the lentiviral vectors, the above plasmids were transfected into HEK293T cells with the Genetargetlentivirus packaging mix (GenTarget Inc, San Diego, Calif.) according to the manufacturer's protocol. For CCR9 tetracycline inducible knockdown, the same shRNA hairpin sequence against CCR9 gene was inserted into pLenti-H1-shRNA-RSV (GFP-Puro) vector (GenTarget Inc, San Diego, Calif.) and packaged into lentivirus particles, which were used together with another TetR expression lentivirus (RFP-Bsd)(GenTarget Inc, San Diego, Calif.) to infect CCICs. After antibiotic selection and GFP/RFP dual FACS purification, the CCR9 shRNA knockdown can be induced by 1 ug/ml (in vitro) or 1 mg/ml (in vivo) doxycycline. NOTCH signaling reporter CCIC was generated by infecting CCIC with pCignalLenti RBP-Jk Reporter (GFP) ready lentivirus (SABiosciences, Inc.). After infecting CCIC lines with these lentiviral vectors, stable knockdown clones were obtained through antibiotic selection of blasticidin (Invitrogen, Carlsbad, Calif.). The efficiency of the CCR9, SNAIL or CD26 knockdown in CCIC was verified by Western Blotting and efficiency of NOTCH signaling reporter was tested by 2 μg/ml Jagged-1 (AnaSpec) treatment following by GFP-FACS sorting.
CCIC xenograft tumor formation in colon/intestine and other organs. 0.5-1×10^6CCIC or common CRC cells were injected into 6-8 weeks old non-obese diabetic/severe combined immunodeficient (NOD/SCID) mice (Jackson Laboratory, Bar Harbor, Me.) by tail vein injection. Tumor incidence was monitored 2-3× weekly. When mice became moribund, they were sacrificed immediately, necropsy performed and tumors harvested using a dissecting microscope. For ex vivo GFP imaging of tumor tissues, lentiviral infection by the pEco-CMV-GFP vector was used to generate CCIC lines that stably express GFP and maintained in puromycin selection. 10^6 of these fluorescent CCIC were systemically injected as described above. Intestinal tissues harvested at the time of sacrifice were analyzed for GFP expression with Cri Maestro Imaging Systems (Cambridge Research & Instrumentation Inc, Woburn, Mass.).
For the CCR9 study, native CCICs, CCICs with CCR9, Snail (SNAL1) or CD26 knockdown (or commonly used CRC cell lines such as HCT116, etc. as indicated), CCR9+ CCIC with CCR9 inducible knockdown were intravenously inoculated into the 6-8 weeks old NOD/SCID mice by tail vein. Mice that became moribund were sacrificed immediately, whereas the rest were closely monitored for 16 weeks before sacrifice. To test whether CCL25 antibody could inhibit the CCL25-CCR9 GI homing mechanism in vivo, a dose of 100 ug goat anti-mouse CCL25 neutralization antibody (R&D systems, Cat #AF-481-NA), was IP administrated to each mouse twice (the same dose and schedule as used in). As a negative control, a dose of 100 ug Goat IgG (R&D systems) was administered to each mouse in the control group. Then 1×10^6CCIC were injected into the mice 8 hours after or with the injection of the antibody. To test whether extra-GI metastasis is induced by CCR9/CCL25 signaling blockade, CCL25 neutralization antibody with the same dose was IP administrated to each mouse every three days or 1 mg/ml doxycycline in drinking water was given to mice every other days starting from the fourth week after CCIC inoculation until mice get moribund.

[3] = mice tail vein injected with early stage CCIC, blockade before/concurrent with injection or constitutive shRNA KD

Compound	chemoresistance of metastatic tumors relative to primary GI tumors and subcutaneous xenografts [1]	overall survival of mice vs. control ([2]; mice systemically injected with CCIC, Kaplan-Meier, FIG. 6C)	Ex-GI Tumor Incidence (%) [2, 3] [%]	GI Tumor Incidence (%) [2, 3]	Mean Ex-GI Tumors/Mouse [2, 3]	Mean GI Tumors/mouse [2, 3]	Mean Progression (weeks) ([2]; mice tail vein injected with early stage CCIC, time until moribund, blockade before/concurrent with injection or constitutive shRNA KD)
O=C1[O][Pt]2([NH][C@@H]3CCCC[C@H]3[NH]2)[O]C1=O [oxaiplatin]	more chemoresistant						
CCR9 KD: constitutive lentiviral shRNA against CCR9 (hairpin 5'-CTTGTACTGGCTCGTGTTCAT, SEQ ID NO:14) expressed in CCIC		significantly longer	85.7	14.3* %	105.0*	0.3*	13.0* weeks
